Measurements: US9233095B2, “Small molecule RNase inhibitors and methods of use” (University of Rochester, priority 2011, dated 2016)
≈ marks a conversion by molar mass, not a printed value.

Assays:
Test in all cases: CLSI broth microdilution MIC
Assay type in all cases: cell-based
S. agalactiae = details: Streptococcus agalactiae
Description: (§1) In some examples, compounds can be further assayed using the Mueller Hinton (MH) broth antibacterial assay as specified by the Clinical and Laboratory Standards Institute MIC broth microdilution protocol (see Methods for Dilution Antimicrobial Susceptibility Tests for Bacteria That Grow Aerobically; Approved Standard, In The Clinical and Laboratory Standards Institute (CLSI, formerly NCCLS), 7th ed., January 2006, 26 (2), M7-A7; see also Performance Standards for Antimicrobial Susceptibility Testing; Eighteenth Informational Supplement, In The Clinical and Laboratory Standards Institute (CLSI, formerly NCCLS), January 2008, 28 (1), M100-S18).
(§2) With the exception of RN4220-derivatives, in vitro activities of RNPA1000 against bacteria were determined by the broth microdilution method according to the Clinical and Laboratory Standards Institute (CLSI) guidelines using cation adjusted Mueller-Hinton broth or MH broth supplemented with 5% lysed horse blood (for testing Streptotococcus spp.). Microtiter plates containing serial dilutions of RNPA1000 (0, 4, 8, 16, 32, 64, and 128 μg/ml) were inoculated with 10^5 colony forming units (CFU)/ml and incubated for 18 hr at 37° C. […] The MIC value for each S. aureus strain was determined to be the median score of replicate measurements (n=5). Wells containing concentrations of RNPA1000≧MIC were plated for minimal bactericidal measurement. Where possible, experiments with VRSA strains were performed in a laminar flow hood to minimize potential for equipment contamination. For RN4220 cells containing plasmid vector (pCN51), RnpA overproducing plasmid (pRNPA-S) or RnpA underproducing plasmid (pRNPA-A.S.) in vitro antimicrobial activity of RNPA1000 was performed by the microdilution method as described above, except that cells were grown in Tryptic Soy Broth medium supplemented with 2.5 μM CdCl2 and 0, 1, 2, 4, 8, 16, 32, 64, or 128 μg/ml RNPA1000. Time-kill assays were also performed to monitor the antimicrobial properties of RNPA1000 for S. aureus strain UAMS-1 in the absence and presence of 0.25, 0.5, 2, and 4 times the strain's MIC for oxacillin (1 μg/ml), rifampicin (0.5 μg/ml), vancomycin (2 μg/ml), or daptomycin (1 μg/ml). The indicated amount of RNPA1000 and/or commercial antibiotic were added to mid-exponential phase (2×10^8 cfu/ml) S. aureus strain UAMS-1 cells and incubated at 37° C. Aliquots were removed at 0, 2, 4, 8, and 24 hr post-antimicrobial challenge, serial diluted, and plated to enumerate resulting cfu/ml. All time-kill assays were repeated at least 3 times.

S. epidermidis = details: Staphylococcus epidermidis
Description: as §1, §2

B. cereus = details: Bacillus cereus; B. cereus Isolate 1
Description: as §1, §2

S. pneumoniae (MDR) = details: Streptococcus pneumoniae
Description: as §1, §2

S. aureus (VISA) = details: Staphylococcus aureus
Description: as §1, §2

S. pneumoniae = details: Streptococcus pneumoniae
Description: as §1, §2

S. bovis = details: Salmonella enterica; S. bovis ATCC49147
Description: as §1, §2

S. aureus (VRSA) = details: Staphylococcus aureus
Description: as §1, §2

S. aureus (MRSA) = details: Staphylococcus aureus
Description: as §1, §2

Compound: Cc1cc(/C=C(/C#N)C(=O)Nc2cccc(Br)c2)c(C)n1-c1ccc(C(=O)O)cc1 [RNPA1000]
- MIC (S. agalactiae; S. agalactiae Isolate 1): 16 µg/mL (≈ 34.5 µM)
- MIC (S. agalactiae; S. agalactiae Isolate 2): 32 µg/mL (≈ 68.9 µM)
- MIC (S. agalactiae; S. agalactiae Isolate 3): 32 µg/mL (≈ 68.9 µM)
- MIC (S. agalactiae; S. agalactiae Isolate 4): 32 µg/mL (≈ 68.9 µM)
- MIC (S. epidermidis; S. epidermidis Isolate 1): 16 µg/mL (≈ 34.5 µM)
- MIC (S. epidermidis; S. epidermidis Isolate 2): 8 µg/mL (≈ 17.2 µM)
- MIC (S. epidermidis; S. epidermidis Isolate 3): 8 µg/mL (≈ 17.2 µM)
- MIC (S. epidermidis; S. epidermidis Isolate 4): 8 µg/mL (≈ 17.2 µM)
- MIC (S. epidermidis; S. epidermidis Isolate 5): 8 µg/mL (≈ 17.2 µM)
- MIC (B. cereus): 8 µg/mL (≈ 17.2 µM)
- MIC (S. pneumoniae (MDR); S. pneumoniae (MDR) Isolate 1): 32 µg/mL (≈ 68.9 µM)
- MIC (S. pneumoniae (MDR); S. pneumoniae (MDR) Isolate 2): 32 µg/mL (≈ 68.9 µM)
- MIC (S. pneumoniae (MDR); S. pneumoniae (MDR) Isolate 3): 16 µg/mL (≈ 34.5 µM)
- MIC (S. pneumoniae (MDR); S. pneumoniae (MDR) Isolate 4): 32 µg/mL (≈ 68.9 µM)
- MIC (S. pneumoniae (MDR); S. pneumoniae (MDR) Isolate 5): 16 µg/mL (≈ 34.5 µM)
- MIC (S. aureus (VISA); NRS 1 / VISA, strain VISA-NRS1): 32 µg/mL (≈ 68.9 µM)
- MIC (S. aureus (VISA); NRS 3 / VISA, strain VISA-NRS3): 16 µg/mL (≈ 34.5 µM)
- MIC (S. aureus (VISA); VISA Isolate 3): 16 µg/mL (≈ 34.5 µM)
- MIC (S. aureus (VISA); VISA Isolate 4): 32 µg/mL (≈ 68.9 µM)
- MIC (S. aureus (VISA); VISA Isolate 5): 16 µg/mL (≈ 34.5 µM)
- MIC (S. pneumoniae; S. pneumoniae Isolate 1): 16 µg/mL (≈ 34.5 µM)
- MIC (S. pneumoniae; S. pneumoniae Isolate 2): 16 µg/mL (≈ 34.5 µM)
- MIC (S. pneumoniae; S. pneumoniae Isolate 3): 16 µg/mL (≈ 34.5 µM)
- MIC (S. pneumoniae; S. pneumoniae Isolate 4): 32 µg/mL (≈ 68.9 µM)
- MIC (S. pneumoniae; S. pneumoniae Isolate 5): 16 µg/mL (≈ 34.5 µM)
- MIC (S. bovis): 32 µg/mL (≈ 68.9 µM)
- MIC (S. aureus (VRSA); strain VRSA-VRS1): 16 µg/mL (≈ 34.5 µM)
- MIC (S. aureus (VRSA); strain VRSA-VRS10): 32 µg/mL (≈ 68.9 µM)
- MIC (S. aureus (MRSA); MRSA / USA100, strain USA100): 26 µg/mL (≈ 56 µM)
- MIC (S. aureus (MRSA); MRSA / USA200, strain USA200): 32 µg/mL (≈ 68.9 µM)
- MIC (S. aureus (MRSA); MRSA / USA300, strain USA300 (USA300-0114)): 23 µg/mL (≈ 49.5 µM)
- MIC (S. aureus (MRSA); MRSA / USA400, strain USA400): 23 µg/mL (≈ 49.5 µM)
- MIC (S. aureus (MRSA); MRSA / USA500, strain USA500): 23 µg/mL (≈ 49.5 µM)
- MIC (S. aureus (MRSA); MRSA / USA600, strain USA600): 32 µg/mL (≈ 68.9 µM)
- MIC (S. aureus (MRSA); MRSA / USA700, strain USA700): 32 µg/mL (≈ 68.9 µM)
- MIC (S. aureus (MRSA); MRSA / USA800, strain USA800): 23 µg/mL (≈ 49.5 µM)
- MIC (S. aureus (MRSA); MRSA, strain USA900): 32 µg/mL (≈ 68.9 µM)
- MIC (S. aureus (MRSA); MRSA, strain USA1000): 29 µg/mL (≈ 62.5 µM)
- MIC (S. aureus (MRSA); MRSA, strain USA1100): 32 µg/mL (≈ 68.9 µM)
